The values below come from ChEMBL document CHEMBL1201862, “PubChem BioAssay data set” (2004).

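Method: 48-hour compound exposure of cells in 96-well plates, five concentrations, linear interpolation of endpoints. The concentration for 50% growth inhibition is given as GI50.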 The source made the active and inactive calls. Cut-off read from the data, not from the text of the source: active = GI50 up to about 1.1 µM and inactive = higher.

Test systems include NCI-H23; CCRF-CEM; IGROV-1; HOP-92; SNB-19; OVCAR-3; HOP-62; 786-0; A549; PC-3; BT-549; TK-10; EKVX; COLO 205; SW-620; NCI-H226; SNB-75; K562; NCI-H522; RXF 393.
Assay in all cases: NCI-60 cell line screen, 48 h

For `C=CC1CCC[N+]1(CC(=O)OCC)Cc1ccccc1` (centres undefined), the GI50 with NCI-H23, in the test on CCRF-CEM, in the test with IGROV-1, with HOP-92, with SNB-19 and with OVCAR-3 was > 100 µM (inactive) each time. The GI50 in the test with HOP-62, in the test with 786-0, in the test with A549, in the test with PC-3, with BT-549 and with TK-10 was > 100 µM (inactive) throughout. The GI50 with EKVX, with COLO 205, in the test with SW-620, in the test with NCI-H226, in the test with SNB-75 and with K562 was > 100 µM (inactive) throughout.

In the case of `c1ccc2c(c1)SC1=C(SC(=C3SC4=C(S3)Sc3ccccc3S4)S1)S2`, the GI50 with NCI-H23, in the test on CCRF-CEM, in the test with IGROV-1, in the test on HOP-92, in the test on SNB-19 and in the test with OVCAR-3 was > 100 µM (inactive) throughout. Further, the GI50 is 36.9 µM (inactive) in the test with HOP-62; 91 µM (inactive) with 786-0; > 100 µM (inactive) in the test with A549; > 100 µM (inactive) in the test with PC-3; > 100 µM (inactive) in the test with NCI-H522; > 100 µM (inactive) with BT-549. The GI50 with TK-10 is > 100 µM (inactive); with EKVX, > 100 µM (inactive); in the test on COLO 205 it was > 100 µM (inactive); with SW-620, > 100 µM (inactive); in the test with NCI-H226, > 100 µM (inactive); in the test on SNB-75, 49.4 µM (inactive).

Regarding `COC(=O)NC1(NC(=O)OC)NC(=O)c2ccccc2N1`, the GI50 in the test on NCI-H23, in the test on CCRF-CEM, in the test with IGROV-1, with SNB-19, in the test on OVCAR-3 and in the test with HOP-62 was > 100 µM (inactive) throughout. The GI50 with 786-0 was > 100 µM (inactive); with A549, < 0.01 µM (active); with PC-3, > 100 µM (inactive); in the test on NCI-H522, > 100 µM (inactive); with BT-549, > 100 µM (inactive); in the test on TK-10 it was 96.2 µM (inactive). In addition, the GI50 in the test on EKVX was > 100 µM (inactive); in the test on COLO 205 it was > 100 µM (inactive); in the test on SW-620, > 100 µM (inactive); with NCI-H226, > 100 µM (inactive); with SNB-75 it was 36 µM (inactive); in the test on K562, > 100 µM (inactive).

Regarding `O=C(O)CCCn1nnc2c(=O)[nH][nH]c(=O)c21`, the GI50 with NCI-H23, in the test with CCRF-CEM, in the test on HOP-92, in the test on SNB-19, in the test with OVCAR-3 and with HOP-62 was > 100 µM (inactive) each time. Besides, the GI50 in the test with 786-0, in the test with A549, in the test with PC-3, in the test on BT-549, in the test on TK-10 and with EKVX was > 100 µM (inactive) each time. The GI50 in the test on COLO 205 and in the test with K562 was > 100 µM (inactive) each time.

As for `Cc1ncc([N+](=O)[O-])n1CCN(C)C(=O)CCCn1ccnc1[N+](=O)[O-]`, the GI50 with NCI-H23, in the test with CCRF-CEM, in the test on IGROV-1, with OVCAR-3, with HOP-62 and in the test with 786-0 was > 100 µM (inactive) throughout. In addition, the GI50 with A549, in the test on PC-3, in the test on RXF 393, with NCI-H522, in the test on BT-549 and in the test on TK-10 was > 100 µM (inactive) throughout. Further, the GI50 in the test with EKVX, in the test with COLO 205, in the test on SW-620, with NCI-H226, in the test with SNB-75 and with K562 was > 100 µM (inactive) in each case.

Take `Cc1ccc(C2SCC(=O)N2c2ccc(-c3ccc(-n4c(-c5ccccc5)nc5ccccc5c4=O)cc3)cc2)cc1` (centres undefined): the GI50 with NCI-H23 was > 100 µM (inactive); in the test with CCRF-CEM, 34.9 µM (inactive); with IGROV-1 it was 25.3 µM (inactive); in the test with HOP-92 it was 35 µM (inactive); in the test with SNB-19 it was > 100 µM (inactive); in the test with OVCAR-3, > 100 µM (inactive). Moreover, the GI50 was > 100 µM (inactive) in the test with HOP-62; 45.7 µM (inactive) in the test on 786-0; > 100 µM (inactive) in the test on A549; 42.4 µM (inactive) in the test with PC-3; 37.2 µM (inactive) in the test with NCI-H522; 60.7 µM (inactive) in the test on BT-549. The GI50 with TK-10 is > 100 µM (inactive); with EKVX, 53.3 µM (inactive); in the test with COLO 205, 81.8 µM (inactive); in the test on SW-620 it was > 100 µM (inactive); with K562, 64.7 µM (inactive).

Turning to `CCOC(=O)c1c(-c2ccccc2)nc2c(OC)nccn12`, the GI50 in the test on NCI-H23, with CCRF-CEM, with IGROV-1, in the test on SNB-19, with OVCAR-3 and with HOP-62 was > 100 µM (inactive) each time. Further, the GI50 is > 100 µM (inactive) in the test with 786-0; > 100 µM (inactive) with A549; > 100 µM (inactive) with PC-3; 15.4 µM (inactive) with RXF 393; > 100 µM (inactive) in the test on NCI-H522; > 100 µM (inactive) in the test on BT-549. For the same molecule, the GI50 is 60.5 µM (inactive) with TK-10; > 100 µM (inactive) with EKVX; > 100 µM (inactive) in the test on COLO 205; > 100 µM (inactive) in the test on SW-620; > 100 µM (inactive) with NCI-H226; > 100 µM (inactive) with SNB-75. In the test with K562, the GI50 was > 100 µM (inactive).

As for `O=C(CCCn1ccnc1[N+](=O)[O-])NCCn1cnc([N+](=O)[O-])c1`, the GI50 in the test on NCI-H23, with CCRF-CEM, in the test on IGROV-1, in the test with SNB-19, in the test on OVCAR-3 and in the test with HOP-62 was > 100 µM (inactive) throughout. Also, the GI50 in the test on 786-0, in the test with A549, in the test with PC-3, in the test on NCI-H522, in the test on BT-549 and in the test with TK-10 was > 100 µM (inactive) throughout. The GI50 in the test with EKVX, in the test with COLO 205, in the test with SW-620, with NCI-H226, in the test on SNB-75 and in the test on K562 was > 100 µM (inactive) each time.

With `CCOc1ncn(-c2ccc(NC(=S)NC3OC(CO)C(O)C(O)C3O)cc2)n1` (centres undefined), the GI50 in the test with NCI-H23, with CCRF-CEM, in the test on IGROV-1, in the test with HOP-92, in the test on SNB-19 and in the test with OVCAR-3 was > 100 µM (inactive) throughout. The GI50 in the test on HOP-62, with 786-0, in the test with A549, in the test on PC-3, in the test on NCI-H522 and in the test on BT-549 was > 100 µM (inactive) in each case. For the same molecule, the GI50 in the test with TK-10, with EKVX, in the test on COLO 205, with SW-620, in the test with SNB-75 and in the test on K562 was > 100 µM (inactive) throughout.

In the case of `Nc1c(C(=O)O)nnc2ccc(Cl)cc12`, the GI50 with NCI-H23, with CCRF-CEM, in the test with IGROV-1, in the test with SNB-19, with OVCAR-3 and in the test on HOP-62 was > 100 µM (inactive) throughout. Further, the GI50 with 786-0, in the test on A549, in the test on PC-3, in the test with NCI-H522, in the test on BT-549 and with TK-10 was > 100 µM (inactive) each time. Moreover, the GI50 in the test on EKVX was > 100 µM (inactive); in the test on COLO 205, > 100 µM (inactive); in the test with SW-620, > 100 µM (inactive); in the test with NCI-H226, 41.8 µM (inactive); in the test on SNB-75, > 100 µM (inactive); with K562, > 100 µM (inactive).

As to `O=C(O)c1ccc(NNc2cc(=O)[nH]c(=O)[nH]2)cc1`, the GI50 with NCI-H23, with CCRF-CEM, in the test with IGROV-1, with SNB-19, with OVCAR-3 and in the test with HOP-62 was > 100 µM (inactive) throughout. Besides, the GI50 is > 100 µM (inactive) in the test with 786-0; > 100 µM (inactive) in the test on A549; 24.4 µM (inactive) with PC-3; > 100 µM (inactive) in the test with RXF 393; > 100 µM (inactive) in the test with BT-549; > 100 µM (inactive) in the test on TK-10. Further, the GI50 in the test with EKVX is > 100 µM (inactive); with COLO 205, > 100 µM (inactive); with SW-620, > 100 µM (inactive); with NCI-H226 it was > 100 µM (inactive); in the test with SNB-75 it was 96.8 µM (inactive); in the test with K562, > 100 µM (inactive).
